Residues, ends and D or L forms follow the SMILES beside them. *: point of attachment. Boc = CC(C)(C)OC(=O)*
These molecules were tested on Plasmodium falciparum (assay: GSK_TCMDC: Inhibition of Plasmodium falciparum 3D7 in whole erythrocytes, using parasite LDH activity as an index of growth.). Conditions: not given.
Format: functional, organism-based
For `COc1ccc(C[C@H](N)C(=O)N[C@H]2[C@@H](O)[C@H](n3cnc4c(N(C)C)ncnc43)O[C@@H]2CO)cc1` [PUROMYCIN], the XC50 was 174 nM.

Same assay, conditions: Plasmodium falciparum, 3D7
For `CC(C)(C)c1ccc(CN2CCC(NC(=O)c3ccc(-c4ccccc4Cl)s3)CC2)cc1`, the XC50 was 1350 nM. `N=C(N)c1ccc(C=CC(=O)NCC(O)CNC(=O)C=Cc2ccc(C(=N)N)cc2)cc1` (stereo unspecified) gave an XC50 of 31.4 nM. In the case of `CN1CCN(Cc2ccc(OCc3cccc(COc4ccc(CN5CCN(C)CC5)cc4I)c3)c(I)c2)CC1`, the XC50 is reported as 1010 nM. For `CN1CCN(CC(=O)Nc2cccc(-c3ccc(-c4nc5cc(C(F)(F)F)ccc5[nH]4)s3)c2)CC1`, the XC50 was 309 nM. Molecule `COc1ccc(C(C(=O)NC2CCN(C[C@H](O)c3ccnc4ccc(OC)cc34)CC2)N2CCN(c3ccc(Cl)c(Cl)c3)CC2)cc1` (stereo partly specified) has an XC50 of 204 nM. `CCOC(=O)c1ccc(NC(=O)N[C@H]2CCN(CCCCCNC(=O)/C=C/c3ccc(Cl)c(Cl)c3)C2)cc1` showed an XC50 of 735 nM. Molecule `OC(CNC1CCCCCC1)c1ccc(Cl)c(Cl)c1` (stereo unspecified) has an XC50 of 688 nM. `COc1cc(-c2[nH]c(-c3ccc(OCCN(C)C)cc3)cc2-c2ccncc2)ccc1Cl` showed an XC50 of 1790 nM. `O=C(NC1CCCCCC1)[C@@H]1CCCN1C(=O)c1ccc(O)c(-c2ccc(Cl)c(Cl)c2)c1` gave an XC50 of 345 nM. `CN(C)CCOc1ccc2c(c1)OC(C)(C)C=C2c1cccc2ccccc12` was tested, and the XC50 was 785 nM. `COc1cc2c(cc1NS(=O)(=O)c1ccc(OCc3ccc(Br)cc3)cc1)CCN(C1CCC1)CC2` gave an XC50 of 843 nM. `COc1ccccc1-c1ccc(C(=O)NCC2CCCN(Cc3cccc(C(F)(F)F)c3)C2)s1` (stereo unspecified) showed an XC50 of 1540 nM. In the case of `O=C(NCC1CCN(Cc2ccsc2)C1)c1cc(-c2cccc(C(F)(F)F)c2)cs1` (stereo unspecified), the XC50 is reported as 700 nM. For `Cc1cc(NC(=O)Nc2ccc3sccc3c2)c2ccccc2n1`, the XC50 was 530 nM. In the case of `CN(C)CCOc1cc(NC(=O)Nc2ccc(-c3ccccc3)cc2Cl)ccc1I`, the XC50 is reported as 245 nM. For `COc1ccc2c(c1CNCCCCCCNCc1c(OC)ccc3c1CCCC3)CCCC2`, the XC50 was 907 nM. `CC(=O)c1cccc(NC(=O)NC2CCN(c3ccnc(Nc4ccc(F)cc4)n3)C2)c1` (stereo unspecified) gave an XC50 of 650 nM. `O=C1CCCN1CCCNCc1cccc(-c2ccc(-c3nc4cc(C(F)(F)F)ccc4[nH]3)cc2)c1` gave an XC50 of 300 nM. `Cc1ccc(NC(=O)N2CCC(n3c(-c4ccccc4)nc4cccnc43)CC2)cc1F` gave an XC50 of 534 nM. Molecule `COc1cccc(CNC(=O)c2cccc(-c3cccc(CN4CCC(N5CCCC5)CC4)c3)n2)c1` has an XC50 of 1030 nM. Molecule `Cc1cc(NC(=O)c2coc3cc(F)c(N4CC(C)N(C)C(C)C4)cc23)cnc1-c1ccc(C#N)cc1` (stereo unspecified) has an XC50 of 695 nM. With `Cc1cc(N[C@@H](Cc2ccccc2)C(=O)NCCOc2ccccc2)nc(NCCc2ccccc2)n1` the XC50 was 1030 nM. `Cn1c(NC2CCN(CC3CCN(C(=O)/C=C/c4ccc(Cl)c(Cl)c4)CC3)CC2)nc2ccccc21` showed an XC50 of 148 nM. `O=C(O)CNCC(O)c1ccccc1` (stereo unspecified) showed an XC50 of 184 nM. Molecule `Cc1ccc(/C=C/C(=O)NC2CCC(N3CCC(c4ccccc4C)CC3)CC2)cc1C` (stereo unspecified) has an XC50 of 809 nM. Molecule `O=C1Nc2cccc3c2C1(CCCCCN1CCC(c2c[nH]c4ccncc24)CC1)CCC3` (stereo unspecified) has an XC50 of 990 nM. With `O=C(Nc1cccc(-c2csc(-c3nc4ccccc4[nH]3)c2)c1)c1ccoc1` the XC50 was 211 nM. `O=C(Nc1cccc(CN2CCN(Cc3ccc(O)cc3)CC2)c1)c1cccc(C(F)(F)F)c1` showed an XC50 of 1210 nM. `Cn1c(NC(=O)c2ccc(CNC(=O)c3ccc(O)c(-c4ccc(Cl)c(Cl)c4)c3)cc2)nc2ccccc21` was tested, and the XC50 was 842 nM. Work on `O=C(/C=C/c1ccc(Cl)c(Cl)c1)NC1CCC(CN2CCC(c3nc4cc(O)ccc4[nH]3)CC2)CC1` (stereo unspecified) yielded an XC50 of 241 nM. `Cc1ccc(NC(=O)c2cccc(CN3CCCN(Cc4cccc(O)c4)CC3)c2)cc1` showed an XC50 of 1310 nM. In the case of `COCCN(C)c1ccc(C(=O)Nc2ccccc2)cc1NS(=O)(=O)Cc1ccccc1`, the XC50 is reported as 571 nM. `O=C(Nc1ccc(Cl)c(Cl)c1)Nc1ccc(F)c([N+](=O)[O-])c1` gave an XC50 of 696 nM. `Cn1ccnc1CNC(=O)c1ccc(-c2ccc(-c3nc4cc(C(F)(F)F)ccc4[nH]3)s2)cc1` was tested, and the XC50 was 698 nM. Work on `COC(=O)CC[C@H](NC(=O)[C@H](C)NC(=O)OC(C)(C)C)C(=O)OC` (Boc-Ala-Glu(OMe)-OMe) yielded an XC50 of 819 nM. Molecule `COc1ccc(-c2nc(NC(=O)CSc3ccccc3)sc2C)cc1` has an XC50 of 764 nM. With `COc1ccc2nccc([C@@H](O)CN3CCC(NCCOc4cc(F)cc(F)c4)CC3)c2c1` the XC50 was 155 nM. `OC(CNC1CCCCC1)Cn1c2ccccc2c2ccccc21` (stereo unspecified) gave an XC50 of 991 nM. With `CCOc1ccc(Nc2cc(C)nc(Nc3ccc(OCC)cc3)n2)cc1` the XC50 was 869 nM. In the case of `O=C(NCc1ccc(F)cc1)Nc1cccc(-c2ccc(-c3nc4ccccc4[nH]3)cc2)c1`, the XC50 is reported as 165 nM. `Fc1ccc2c(NN=Cc3ccccc3F)ccnc2c1` gave an XC50 of 562 nM. `FC(F)(F)c1ccc2[nH]c(-c3ccc(-c4cccc(CN5CCCCC5)c4)cc3)nc2c1` showed an XC50 of 144 nM. In the case of `O=C(Nc1cccc(-c2ccc(-c3nc4cc(C(F)(F)F)ccc4[nH]3)s2)c1)c1ccncc1`, the XC50 is reported as 681 nM. With `COC(C(=O)OCCC1CCCN1C)(c1ccccc1)c1ccccc1` (stereo unspecified) the XC50 was 970 nM. In the case of `CC(C)(C)C1CC(=O)CC2C(=O)N(c3ccc(Br)cc3)C(=O)C21` (stereo unspecified), the XC50 is reported as 934 nM. Work on `O=C(Nc1ccc(F)c(F)c1)c1ccc(CN2CCCN(Cc3cccc(F)c3)CC2)cc1` yielded an XC50 of 1120 nM. `Nc1cc(-c2cc3c(OCc4ccccc4)cccc3[nH]2)ccn1` showed an XC50 of 1190 nM. `CCOC(=O)c1ccc(-c2c(C(F)(F)F)noc2-c2cc(CC)c(OC)cc2O)o1` gave an XC50 of 206 nM. Molecule `COc1ccc2c(O)c(C3CCC(c4ccc(Cl)cc4)CC3)c(C)nc2c1` (stereo unspecified) has an XC50 of 647 nM. In the case of `O=C(NCCCCN1CCC(c2ccc3c(c2OCCO)CCCC3)CC1)c1ccc2oc(-c3ccc(C(F)(F)F)cc3)cc2c1`, the XC50 is reported as 340 nM. In the case of `COc1ccc(CCn2c(=N)c(C(=O)NCc3ccc(C)cc3)cc3c(=O)n4ccccc4nc32)cc1`, the XC50 is reported as 1130 nM. In the case of `CN1CCN(Cc2ccc(-c3ccc4c(Nc5ccc(F)cc5Cl)ccnc4c3)o2)CC1`, the XC50 is reported as 143 nM. Work on `COc1ccccc1NC(=O)OC(COc1ccc(N)cc1)CN1CC=C(c2ccccc2)CC1` (stereo unspecified) yielded an XC50 of 1040 nM. In the case of `O=C(/C=C/c1ccc(Cl)c(Cl)c1)NCCCCCN1CCC(n2c(=O)[nH]c3ccccc32)CC1`, the XC50 is reported as 869 nM. Work on `O=C(c1cccs1)N1CCN(c2ccc([N+](=O)[O-])c(NC3CC3)c2)CC1` yielded an XC50 of 767 nM. For `O=C(c1cc(-c2cccs2)n[nH]1)N1CCN(S(=O)(=O)c2ccc(Br)cc2)CC1`, the XC50 was 357 nM. `CCCc1cc(Cc2cnc(N)nc2N)cc2c1OC(C)C2C` (stereo unspecified) gave an XC50 of 673 nM. For `CCc1cc2c(=O)c(-c3nc(C)cs3)c(N)oc2c(CN2CCCCC2)c1O`, the XC50 was 658 nM. Work on `N=C(N)c1ccc(Nc2nccc(Nc3nc(-c4ccccc4)cs3)n2)cc1` yielded an XC50 of 754 nM. `O=C(Nc1cccc(CN2CCCN(Cc3ccc(O)cc3)CC2)c1)c1cccc(C(F)(F)F)c1` showed an XC50 of 314 nM. `O=C(NC1CCN(Cc2ccccc2O)C1)c1ccc(-c2ccccc2)cc1` (stereo unspecified) was tested, and the XC50 was 838 nM. `Cc1cc(F)ccc1-c1nc(NCCCN2CCCC2=O)nc2c1ccc(=O)n2-c1c(F)cccc1F` showed an XC50 of 1020 nM. Work on `O=C(NC1CCN(Cc2ccccc2)CC1)c1cc(-c2ccncc2)c(-c2ccc(Cl)c(O)c2)o1` yielded an XC50 of 407 nM. In the case of `CC(=O)Nc1ccc(C(=O)Nc2cccc(-c3ccc(-c4nc5cc(F)ccc5[nH]4)cc3)c2)cn1`, the XC50 is reported as 174 nM. In the case of `CC1(C)N=C(N)N=C(N)N1O`, the XC50 is reported as 192 nM. With `CN(C)CCCOc1c(C(C)(C)C)cc(-c2cc(C(C)(C)C)c(OCCCN(C)C)c(C(C)(C)C)c2)cc1C(C)(C)C` the XC50 was 270 nM. In the case of `N#Cc1ccc2c(c1)CCN(CCC1CCC(NC(=O)/C=C/c3cc(Br)cs3)CC1)CC2` (stereo unspecified), the XC50 is reported as 997 nM. For `COc1ccc2nccc(N3CCN(CCNCc4ccc5c(n4)NC(=O)CO5)CC3)c2n1`, the XC50 was 885 nM. `COc1ccc(NC(=O)Nc2cccc(-c3ccc(-c4nc5cc(C(F)(F)F)ccc5[nH]4)cc3)c2)cc1` gave an XC50 of 452 nM. Work on `O=C(/C=C/c1ccc(Cl)c(Cl)c1)N1CCC(CN2CCC(c3c[nH]c4ccccc34)C(O)C2)CC1` (stereo unspecified) yielded an XC50 of 809 nM. With `O=C(/C=C/c1ccc(Cl)c(Cl)c1)NCCCCCN1CC[C@H](NC(=O)/C=C/c2ccccc2)C1` the XC50 was 1000 nM. Molecule `Cc1cc(C(=O)Nc2ccc(-c3ccccc3)cc2)no1` has an XC50 of 694 nM. Molecule `O=C(NCCCCN1CCN(c2nsc3ccccc23)CC1)c1ccccc1C(=O)NCCCCN1CCN(c2nsc3ccccc23)CC1` has an XC50 of 887 nM. `COC(=O)c1ccc(CC(C)NCC(O)c2cccc(C(F)(F)F)c2)c(Cl)c1` (stereo unspecified) showed an XC50 of 854 nM. `Cc1ccc2[nH]c(-c3cc(-c4cccc(C#N)c4)cnc3N)nc2c1` was tested, and the XC50 was 117 nM. For `CCOc1cc(Cl)c(C(C)NC(=O)c2ccccc2)cc1OCC` (stereo unspecified), the XC50 was 875 nM. With `CC1CCCCC1N(C)C1CCN(CCCNC(=O)C=Cc2cccc(C(F)(F)F)c2)CC1` (stereo unspecified) the XC50 was 772 nM. For `COc1ccc2nccc([C@@H](O)CN3CCC(NCc4ccc5scnc5c4)CC3)c2c1`, the XC50 was 399 nM. `COc1cc2nc(N(C)C)nc(Nc3ccc4c(cnn4Cc4ccccc4)c3)c2cc1OC` showed an XC50 of 44 nM. `CCc1ccc(N2C(=O)C3C(Cc4ccc(OC(C)(C)C)cc4)NC4(C(=O)N(Cc5ccccc5)c5ccc(F)cc54)C3C2=O)cc1` (stereo unspecified) gave an XC50 of 800 nM. Molecule `COc1ccc(CN2CCC(NCc3cccc(C(F)(F)F)c3)CC2)cc1` has an XC50 of 753 nM. With `OC1CCCN(Cc2ccc(-c3ccc(-c4nc5ccccc5[nH]4)cc3)cc2)C1` (stereo unspecified) the XC50 was 838 nM. For `c1cc(CNCC2CCCO2)cc(-c2csc(-c3nc4ccccc4[nH]3)c2)c1` (stereo unspecified), the XC50 was 1040 nM. `CC(=O)Nc1ccc(CN(Cc2ccc(C)cc2)Cc2cccc(Oc3ccccc3)c2)cc1` showed an XC50 of 1050 nM. `COc1ccc(CNCc2cccc(-c3csc(-c4nc5ccccc5[nH]4)c3)c2)cc1` showed an XC50 of 645 nM. For `NC(=O)c1cc2nc(Nc3ccc(F)cc3)nc(NC3CCC3)c2[nH]1`, the XC50 was 195 nM. In the case of `COc1ccc2c(c1)nc(CNC(=N)N)n2Cc1ccc(Cl)cc1`, the XC50 is reported as 359 nM. `Cc1cc(F)ccc1-c1nc(NCCCNCCc2ccccc2)nc2c1ccc(=O)n2-c1c(F)cccc1F` gave an XC50 of 186 nM. With `CN1CCN(c2ccnc3ccc(NC(=O)Cc4ccc(OCc5ccccc5)cc4)cc23)CC1` the XC50 was 628 nM. With `O=C(Nc1ccsc1)Nc1cccc(-c2ccc(-c3nc4cc(C(F)(F)F)ccc4[nH]3)cc2)c1` the XC50 was 351 nM. `Cc1noc(C)c1-c1ccc2c(Nc3ccccc3C(C)(C)C)c(C(=O)NCc3cccc4ccccc34)cnc2c1` was tested, and the XC50 was 941 nM. `CN1CCN(c2ccc3[nH]c(-c4ccc(Cc5cc(Cl)ccc5OCc5ccccc5)o4)nc3c2)CC1` showed an XC50 of 807 nM. With `O=C(c1cccc(COc2ccc3c(c2)CCN(C2CCCC2)CC3)c1)N1CCN(c2ccncc2)CC1` the XC50 was 740 nM. Molecule `COc1cccc(NC(=O)Nc2ccc(Nc3nc(C)cc(N(C)C)n3)cc2)c1` has an XC50 of 169 nM. `Cn1nc(C(F)(F)F)c(-c2ccc(F)cc2)c1NC(=O)Nc1ccc(F)cc1F` gave an XC50 of 765 nM.

Reference: ChEMBL document CHEMBL1157539, “Thousands of chemical starting points for antimalarial lead identification” (Nature, 2010)
